Numbers after ± are expanded uncertainties.
How the values were obtained:
[1] = for vapor or sublimation pressure: Transpiration method
[2] = Molar enthalpy of transition or fusion; conditions: Crystal; DSC

Compound: c1ccc(-n2c3ccccc3c3ccccc32)cc1 [N-phenylcarbazole]
- vapor or sublimation pressure ([1]; 330.1 K, Crystal): 9.2e-06 ± 1e-05 kPa
- vapor or sublimation pressure ([1]; 336.4 K, Crystal): 2.01e-05 ± 1.1e-05 kPa
- vapor or sublimation pressure ([1]; 343.5 K, Crystal): 4.67e-05 ± 1.3e-05 kPa
- vapor or sublimation pressure ([1]; 349.2 K, Crystal): 9.26e-05 ± 1.5e-05 kPa
- vapor or sublimation pressure ([1]; 350 K, Metastable liquid): 0.000128 ± 1.7e-05 kPa
- vapor or sublimation pressure ([1]; 356.1 K, Crystal): 0.00019 ± 2.1e-05 kPa
- vapor or sublimation pressure ([1]; 356.1 K, Metastable liquid): 0.000224 ± 2.4e-05 kPa
- vapor or sublimation pressure ([1]; 362.8 K, Crystal): 0.0003947 ± 3.4e-05 kPa
- vapor or sublimation pressure ([1]; 362.8 K, Metastable liquid): 0.000395 ± 3.4e-05 kPa
- vapor or sublimation pressure ([1]; 368.5 K, Metastable liquid): 0.000657 ± 4.9e-05 kPa
- vapor or sublimation pressure ([1]; 372.4 K, Liquid): 0.000913 ± 6.7e-05 kPa
- vapor or sublimation pressure ([1]; 377.3 K, Liquid): 0.001342 ± 9.3e-05 kPa
- Normal melting temperature ([1]; Crystal, DTA): 94.8 ± 0.5 °C
- Glass transition temperature ([1]; Glass, DSC): -18.3 ± 0.8 °C
- Molar enthalpy of transition or fusion [2]: 4.64 ± 0.12 kcal/mol

From the NIST ThermoML archive (doi:10.1016/j.jct.2018.12.032)
